Measurements published in ChEMBL document CHEMBL1153553, “Pharmacodynamics of RWJ-54428 against Staphylococcus aureus, Streptococcus pneumoniae, and Enterococcus faecalis in a neutropenic mouse thigh infection model” (Antimicrob Agents Chemother, 2008).

Key:
[1] = Clearance with respect to bioavailability in neutropenic Swiss mouse thigh infection model at 100 mg/kg, ip; type: ADME, organism-based; details: in vivo
[2] = test system: Staphylococcus aureus; test: Antibacterial activity against methicillin-resistant Staphylococcus aureus infected in neutropenic Swiss mouse thigh model assessed as maximal bactericidal effect per thigh at 1.5 to 200 mg/kg, ip administered 2 hrs of postinfection measured after 24 hrs; type: functional; details: dose mg/kg 1.5-200; route intraperitoneal
[3] = Cmax in neutropenic Swiss mouse thigh infection model at 100 mg/kg, ip; type: ADME, organism-based; design: dose 100 mg/kg, route intraperitoneal; details: in vivo
[4] = Half life in neutropenic Swiss mouse thigh infection model at 100 mg/kg, ip; type: ADME, organism-based; design: dose 100 mg/kg, route intraperitoneal; details: in vivo
[5] = test system: Enterococcus faecalis; test: Antibacterial activity against Enterococcus faecalis infected in neutropenic Swiss mouse thigh model assessed as maximal bactericidal effect per thigh at 1.5 to 200 mg/kg, ip administered 2 hrs of postinfection measured after 24 hrs; type: functional; details: dose mg/kg 1.5-200; route intraperitoneal
[6] = fT>MIC in neutropenic Swiss mouse thigh model infected with methicillin-resistant Staphylococcus aureus COL assessed as maximal effect on bacterial count reduction at 1.5 to 200 mg/kg, ip administered 2 hrs postinfection measured after 24 hrs; type: functional; details: dose mg/kg 1.5-200; route intraperitoneal
[7] = fT>MIC in neutropenic Swiss mouse thigh model infected with Streptococcus pneumoniae ATCC 49619 assessed as maximal effect on bacterial count reduction at 1.5 to 200 mg/kg, ip administered 2 hrs postinfection measured after 24 hrs; type: functional; details: dose mg/kg 1.5-200; route intraperitoneal
[8] = Cmax in neutropenic Swiss mouse thigh infection model at 20 mg/kg, ip; type: ADME, organism-based; design: dose 20 mg/kg, route intraperitoneal; details: in vivo
[9] = test system: Staphylococcus aureus; test: Antibacterial activity against methicillin-resistant Staphylococcus aureus isolate 604 after 24 hrs by broth microdilution method; type: functional; details: isolate 604, 24 h
[10] = test system: Enterococcus faecalis; test: Antibacterial activity against Enterococcus faecalis ATCC 29212 after 24 hrs by broth microdilution method; type: functional; details: ATCC 29212, 24 h
[11] = test system: Streptococcus pneumoniae; test: Antibacterial activity against Streptococcus pneumoniae ATCC 49619 after 24 hrs by broth microdilution method; type: functional; details: ATCC 49619, 24 h
[12] = fT>MIC in neutropenic Swiss mouse thigh model infected with Enterococcus faecalis ATCC 29212 assessed as 1 log reduction of bacterial count at 1.5 to 200 mg/kg, ip administered 2 hrs postinfection measured after 24 hrs; type: functional; details: dose mg/kg 1.5-200; route intraperitoneal
[13] = test system: Staphylococcus aureus; test: Antibacterial activity against methicillin-resistant Staphylococcus aureus 076 after 24 hrs by broth microdilution method; type: functional; details: Staphylococcus aureus, 076, 24 h
[14] = fT>MIC in neutropenic Swiss mouse thigh model infected with Streptococcus pneumoniae ATCC 49619 assessed as static effect on bacterial count reduction at 1.5 to 200 mg/kg, ip administered 2 hrs postinfection measured after 24 hrs; type: functional; details: dose mg/kg 1.5-200; route intraperitoneal
[15] = fT>MIC in neutropenic Swiss mouse thigh model infected with methicillin-resistant Staphylococcus aureus isolate 609 assessed as maximal effect on bacterial count reduction at 1.5 to 200 mg/kg, ip administered 2 hrs postinfection measured after 24 hrs; type: functional; details: dose mg/kg 1.5-200; route intraperitoneal
[16] = Apparent volume of distribution with respect to bioavailability in neutropenic Swiss mouse thigh infection model at 20 mg/kg, ip; type: ADME, organism-based; details: in vivo, read-out: Vc/F
[17] = Clearance with respect to bioavailability in neutropenic Swiss mouse thigh infection model at 20 mg/kg, ip; type: ADME, organism-based; details: in vivo
[18] = fT>MIC in neutropenic Swiss mouse thigh model infected with methicillin-resistant Staphylococcus aureus COL assessed as 1 log reduction of bacterial count at 1.5 to 200 mg/kg, ip administered 2 hrs postinfection measured after 24 hrs; type: functional; details: dose mg/kg 1.5-200; route intraperitoneal
[19] = fT>MIC in neutropenic Swiss mouse thigh model infected with Enterococcus faecalis ATCC 29212 assessed as static effect on bacterial count reduction at 1.5 to 200 mg/kg, ip administered 2 hrs postinfection measured after 24 hrs; type: functional; details: dose mg/kg 1.5-200; route intraperitoneal
[20] = fT>MIC in neutropenic Swiss mouse thigh model infected with penicillin-resistant Streptococcus pneumoniae SP 019 assessed as 1 log reduction of bacterial count at 1.5 to 200 mg/kg, ip administered 2 hrs postinfection measured after 24 hrs; type: functional; details: dose mg/kg 1.5-200; route intraperitoneal
[21] = fT>MIC in neutropenic Swiss mouse thigh model infected with Streptococcus pneumoniae ATCC 49619 assessed as 2 log reduction of bacterial count at 1.5 to 200 mg/kg, ip administered 2 hrs postinfection measured after 24 hrs; type: functional; details: dose mg/kg 1.5-200; route intraperitoneal
[22] = test system: Streptococcus pneumoniae; test: Antibacterial activity against penicillin-resistant Streptococcus pneumoniae SP 019 after 24 hrs by broth microdilution method; type: functional; details: SP 019, 24 h
[23] = test system: Staphylococcus aureus; test: Antibacterial activity against methicillin-resistant Staphylococcus aureus isolate 602 after 24 hrs by broth microdilution method; type: functional; details: isolate 602, 24 h
[24] = fT>MIC in neutropenic Swiss mouse thigh model infected with Streptococcus pneumoniae ATCC 49619 assessed as 1 log reduction of bacterial count at 1.5 to 200 mg/kg, ip administered 2 hrs postinfection measured after 24 hrs; type: functional; details: dose mg/kg 1.5-200; route intraperitoneal
[25] = fT>MIC in neutropenic Swiss mouse thigh model infected with methicillin-resistant Staphylococcus aureus 076 assessed as maximal effect on bacterial count reduction at 1.5 to 200 mg/kg, ip administered 2 hrs postinfection measured after 24 hrs; type: functional; details: dose mg/kg 1.5-200; route intraperitoneal
[26] = fT>MIC in neutropenic Swiss mouse thigh model infected with methicillin-resistant Staphylococcus aureus 076 assessed as static effect on bacterial count reduction at 1.5 to 200 mg/kg, ip administered 2 hrs postinfection measured after 24 hrs; type: functional; details: dose mg/kg 1.5-200; route intraperitoneal
[27] = Tmax in neutropenic Swiss mouse thigh infection model at 20 mg/kg, ip; type: ADME, organism-based; design: dose 20 mg/kg, route intraperitoneal; details: in vivo
[28] = AUC in neutropenic Swiss mouse thigh infection model at 20 mg/kg, ip; type: ADME, organism-based; design: dose 20 mg/kg, route intraperitoneal; details: in vivo
[29] = Protein binding in neutropenic Swiss mouse thigh infection model serum at 100 mg/kg, ip by ultrafiltration; type: ADME, organism-based; design: dose 100 mg/kg, route intraperitoneal; details: read-out: PB (converted)
[30] = AUC in neutropenic Swiss mouse thigh infection model at 100 mg/kg, ip; type: ADME, organism-based; design: dose 100 mg/kg, route intraperitoneal; details: in vivo
[31] = Protein binding in neutropenic Swiss mouse thigh infection model serum at 20 mg/kg, ip by ultrafiltration; type: ADME, organism-based; design: dose 20 mg/kg, route intraperitoneal; details: read-out: PB (converted)
[32] = fT>MIC in neutropenic Swiss mouse thigh model infected with methicillin-resistant Staphylococcus aureus isolate 602 assessed as 1 log reduction of bacterial count at 1.5 to 200 mg/kg, ip administered 2 hrs postinfection measured after 24 hrs; type: functional; details: dose mg/kg 1.5-200; route intraperitoneal
[33] = fT>MIC in neutropenic Swiss mouse thigh model infected with Enterococcus faecalis EFS 007 assessed as static effect on bacterial count reduction at 1.5 to 200 mg/kg, ip administered 2 hrs postinfection measured after 24 hrs; type: functional; details: dose mg/kg 1.5-200; route intraperitoneal
[34] = test system: Staphylococcus aureus; test: Antibacterial activity against methicillin-resistant Staphylococcus aureus isolate 609 after 24 hrs by broth microdilution method; type: functional; details: isolate 609, 24 h
[35] = fT>MIC in neutropenic Swiss mouse thigh model infected with penicillin-resistant Streptococcus pneumoniae SP 019 assessed as static effect on bacterial count reduction at 1.5 to 200 mg/kg, ip administered 2 hrs postinfection measured after 24 hrs; type: functional; details: dose mg/kg 1.5-200; route intraperitoneal
[36] = fT>MIC in neutropenic Swiss mouse thigh model infected with Enterococcus faecalis EFS 007 assessed as 1 log reduction of bacterial count at 1.5 to 200 mg/kg, ip administered 2 hrs postinfection measured after 24 hrs; type: functional; details: dose mg/kg 1.5-200; route intraperitoneal
[37] = fT>MIC in neutropenic Swiss mouse thigh model infected with Enterococcus faecalis ATCC 29212 assessed as maximal effect on bacterial count reduction at 1.5 to 200 mg/kg, ip administered 2 hrs postinfection measured after 24 hrs; type: functional; details: dose mg/kg 1.5-200; route intraperitoneal
[38] = test system: Streptococcus pneumoniae; test: Antibacterial activity against Streptococcus pneumoniae infected in neutropenic Swiss mouse thigh model assessed as maximal bactericidal effect per thigh at 1.5 to 200 mg/kg, ip administered 2 hrs of postinfection measured after 24 hrs; type: functional; details: dose mg/kg 1.5-200; route intraperitoneal
[39] = fT>MIC in neutropenic Swiss mouse thigh model infected with Enterococcus faecalis EFS 007 assessed as maximal effect on bacterial count reduction at 1.5 to 200 mg/kg, ip administered 2 hrs postinfection measured after 24 hrs; type: functional; details: dose mg/kg 1.5-200; route intraperitoneal
[40] = Tmax in neutropenic Swiss mouse thigh infection model at 100 mg/kg, ip; type: ADME, organism-based; design: dose 100 mg/kg, route intraperitoneal; details: in vivo
[41] = Apparent volume of distribution with respect to bioavailability in neutropenic Swiss mouse thigh infection model at 100 mg/kg, ip; type: ADME, organism-based; details: in vivo, read-out: Vc/F
[42] = fT>MIC in neutropenic Swiss mouse thigh model infected with methicillin-resistant Staphylococcus aureus isolate 602 assessed as maximal effect on bacterial count reduction at 1.5 to 200 mg/kg, ip administered 2 hrs postinfection measured after 24 hrs; type: functional; details: dose mg/kg 1.5-200; route intraperitoneal
[43] = Half life in neutropenic Swiss mouse thigh infection model at 20 mg/kg, ip; type: ADME, organism-based; design: dose 20 mg/kg, route intraperitoneal; details: in vivo
[44] = fT>MIC in neutropenic Swiss mouse thigh model infected with methicillin-resistant Staphylococcus aureus COL assessed as static effect on bacterial count reduction at 1.5 to 200 mg/kg, ip administered 2 hrs postinfection measured after 24 hrs; type: functional; details: dose mg/kg 1.5-200; route intraperitoneal
[45] = test system: Staphylococcus aureus; test: Antibacterial activity against methicillin-resistant Staphylococcus aureus COL after 24 hrs by broth microdilution method; type: functional
[46] = fT>MIC in neutropenic Swiss mouse thigh model infected with methicillin-resistant Staphylococcus aureus isolate 602 assessed as static effect on bacterial count reduction at 1.5 to 200 mg/kg, ip administered 2 hrs postinfection measured after 24 hrs; type: functional; details: dose mg/kg 1.5-200; route intraperitoneal
[47] = fT>MIC in neutropenic Swiss mouse thigh model infected with methicillin-resistant Staphylococcus aureus isolate 609 assessed as static effect on bacterial count reduction at 1.5 to 200 mg/kg, ip administered 2 hrs postinfection measured after 24 hrs; type: functional; details: dose mg/kg 1.5-200; route intraperitoneal
[48] = fT>MIC in neutropenic Swiss mouse thigh model infected with methicillin-resistant Staphylococcus aureus isolate 604 assessed as static effect on bacterial count reduction at 1.5 to 200 mg/kg, ip administered 2 hrs postinfection measured after 24 hrs; type: functional; details: dose mg/kg 1.5-200; route intraperitoneal
[49] = test system: Enterococcus faecalis; test: Antibacterial activity against Enterococcus faecalis EFS 007 after 24 hrs by broth microdilution method; type: functional; details: EFS 007, 24 h

SMILES: CS(=O)(=O)O.NCCSCc1cnccc1SC1=C(C(=O)O)N2C(=O)[C@@H](NC(=O)/C(=N\O)c3nc(N)sc3Cl)[C@H]2SC1
- CL/F [1]: 15 mL/min/kg
- log10cfu [2]: -2.83
- Cmax [3]: 133 µg/mL
- half-life [4]: 19.8 min
- log10cfu [5]: -1.65
- fT>MIC [6]: 36%
- fT>MIC [7]: 28%
- Cmax [8]: 47.3 µg/mL
- MIC [9]: 0.5 µg/mL
- MIC [10]: 0.06 µg/mL
- MIC [11]: 0.03 µg/mL
- fT>MIC [12]: 48%
- MIC [13]: 1 µg/mL
- fT>MIC [14]: 18%
- fT>MIC [15]: 22%
- Vd/F [16]: 0.3 L/kg
- CL/F [17]: 20 mL/min/kg
- fT>MIC [18]: 20%
- fT>MIC [19]: 30%
- fT>MIC [20]: 22%
- fT>MIC [21]: 23%
- MIC [22]: 0.5 µg/mL
- MIC [23]: 0.5 µg/mL
- fT>MIC [24]: 21%
- fT>MIC [25]: 32%
- fT>MIC [26]: 16%
- Tmax [27]: 5.4 min
- AUC [28]: 16600 ng·h/mL
- fraction unbound [29]: 0.4
- AUC [30]: 108000 ng·h/mL
- fraction unbound [31]: 0.4
- fT>MIC [32]: 20%
- fT>MIC [33]: 46%
- MIC [34]: 0.5 µg/mL
- fT>MIC [35]: 16%
- fT>MIC [36]: 56%
- fT>MIC [37]: 60%
- log10cfu [38]: -3.75
- fT>MIC [39]: 60%
- Tmax [40]: 15.6 min
- Vd/F [41]: 0.44 L/kg
- fT>MIC [42]: 24%
- half-life [43]: 10.2 min
- fT>MIC [44]: 14%
- MIC [45]: 1 µg/mL
- fT>MIC [46]: 17%
- fT>MIC [47]: 16%
- fT>MIC [48]: 20%
- MIC [49]: 0.125 µg/mL
